Results on 27 molecules are retold here after article PMC8286840, “Identifying SARS-CoV-2 antiviral compounds by screening for small molecule inhibitors of Nsp3 papain-like protease” (Biochemical Journal, 2021).

Test [1] addresses T1, SARS-CoV-2 PLpro (nsp3 1564–1878) (Severe acute respiratory syndrome coronavirus 2, UniProt P0DTD1). The test is described as follows: biochemical. Set-up: FRET-quenched peptide (Pro3) cleavage by PLpro, 10 min pre-incubation, slope over 20 min, normalised to no-compound control. The note with it: read-out: % of control remaining.
The target of test [2] is T1, SARS-CoV-2 PLpro (nsp3 1564–1878). Put plainly: biochemical. The note with it: read-out: % of control remaining. Set-up: FRET-quenched peptide (Pro3) cleavage by PLpro, 10 min pre-incubation, slope over 20 min, normalised to no-compound control. This is another data set of the same source.

The structures appear in SMILES notation. Where a name gives a salt, the structure may show the parent alone. Read-outs that look alike come from different tables or passages of the source. Where a SMILES comes first, the peptide text is derived from it. [ ]: non-standard residue; d: D form. pGlu = O=C1CC[C@@H](C(=O)O)N1; Thz = O=C(O)[C@@H]1CSCN1

Take `CCCCCCCCCCCCCC(=O)O[C@@H]1[C@@H](C)[C@@]2(O)[C@@H](C=C(CO)C[C@]3(O)C(=O)C(C)=C[C@@H]23)[C@@H]2C(C)(C)[C@]12OC(C)=O` [Phorbol 12-myristate 13-acetate]: the remaining activity at 1.25 µM in test [1] (Well no.=1493, low concentration screen) amounted to 101%; in test [1] (Well no.=3078, low concentration screen), 102%. For the same molecule, the remaining activity at 3.75 µM in test [2] (Well no.=1493, high concentration screen) is 97.5%; in test [2] (Well no.=3078, high concentration screen) it was 105%.

For the molecule `C[C@@H]1O[C@@H]1P(=O)(O)O` [Phosphomycin disodium], the remaining activity at 1.25 µM in test [1] (Well no.=1148, low concentration screen) came out at 96.5%. Also, the remaining activity at 3.75 µM in test [2] (Well no.=1148, high concentration screen) was determined as 93.1%.

With `O=C(O)CP(=O)(O)O` [Phosphonoacetic acid], the remaining activity at 1.25 µM in test [1] (Well no.=1299, low concentration screen) was determined as 101%. For the same molecule, the remaining activity at 3.75 µM in test [2] (Well no.=1299, high concentration screen) came out at 103%.

Turning to `CC(C)C[C@H](NP(=O)(O)O[C@@H]1O[C@@H](C)[C@H](O)[C@@H](O)[C@H]1O)C(=O)N[C@@H](Cc1c[nH]c2ccccc12)C(=O)O` [Phosphoramidon disodium], the remaining activity at 1.25 µM in test [1] (Well no.=1398, low concentration screen) amounted to 99.4%. Also, the remaining activity at 3.75 µM in test [2] (Well no.=1398, high concentration screen) amounted to 100%.

For `NC(=O)c1ccccc1C(=O)N[C@@H](CCC(=O)O)C(=O)O` [Phthalamoyl-L-glutamic acid trisodium], the remaining activity at 1.25 µM in test [1] (Well no.=1409, low concentration screen) came out at 99.3%. Moreover, the remaining activity at 3.75 µM in test [2] (Well no.=1409, high concentration screen) is 101%.

`CC(=O)NS(=O)(=O)c1ccc(NC(=O)c2ccccc2C(=O)O)cc1` [Phthalylsulfacetamide]: the remaining activity at 1.25 µM in test [1] (Well no.=7356, low concentration screen) stood at 105%. Also, the remaining activity at 3.75 µM in test [2] (Well no.=7356, high concentration screen) stood at 100%.

For `O=C(O)c1ccccc1C(=O)Nc1ccc(S(=O)(=O)Nc2nccs2)cc1` [Phthalylsulfathiazole], the remaining activity at 1.25 µM in test [1] (Well no.=7314, low concentration screen) is 97.8%. The remaining activity at 3.75 µM in test [2] (Well no.=7314, high concentration screen) stood at 95.3%.

As to `CCCCCCCCCCCCCC[C@@H](O)[C@@H](O)[C@@H](N)CO` [Phytosphingosine], in test [1] (Well no.=3082, low concentration screen), the remaining activity at 1.25 µM turned out to be 102%. Also, in test [2] (Well no.=3082, high concentration screen), the remaining activity at 3.75 µM is 103%.

For the molecule `CCCCN1CCC(CNC(=O)c2c3n(c4ccccc24)CCCO3)CC1` [Piboserod], in test [1] (Well no.=7965, low concentration screen), the remaining activity at 1.25 µM is 93.1%. The remaining activity at 3.75 µM in test [2] (Well no.=7965, high concentration screen) came out at 93.6%.

`Oc1cc(O)cc(/C=C/c2ccc(O)c(O)c2)c1` [Piceatannol]: the remaining activity at 1.25 µM is 98.3% in test [1] (Well no.=948, low concentration screen); 107% in test [1] (Well no.=3084, low concentration screen); 105% in test [1] (Well no.=3939, low concentration screen). Moreover, the remaining activity at 3.75 µM in test [2] (Well no.=948, high concentration screen) stood at 92.7%; in test [2] (Well no.=3084, high concentration screen) it was 98.8%; in test [2] (Well no.=3939, high concentration screen) it was 102%.

Consider `COc1ccc(C(=O)NCc2cccnc2)cc1C(=O)NCc1cccnc1` [Picotamide], for which the remaining activity at 1.25 µM turned out to be 102% in test [1] (Well no.=1351, low concentration screen) and 88.9% in test [1] (Well no.=2202, low concentration screen). Besides, the remaining activity at 3.75 µM in test [2] (Well no.=1351, high concentration screen) is 102%; in test [2] (Well no.=2202, high concentration screen), 90.3%.

Consider `COc1cc([C@@H]2c3cc4c(cc3[C@H](O)[C@H]3COC(=O)[C@@H]23)OCO4)cc(OC)c1OC` [Picropodophyllin], for which the remaining activity at 1.25 µM in test [1] (Well no.=3341, low concentration screen) came to 95.7%. Besides, in test [2] (Well no.=3341, high concentration screen), the remaining activity at 3.75 µM was determined as 98.4%.

On to `C=C(C)[C@@H]1[C@H]2OC(=O)[C@@H]1[C@]1(O)C[C@H]3O[C@]34C(=O)O[C@H]2[C@]14C` [Picrotoxinin], for which the remaining activity at 1.25 µM in test [1] came out at 101%. Besides, the remaining activity at 3.75 µM in test [2] amounted to 101%.

`O=C1CC[C@@H](C(=O)N2CSC[C@H]2C(=O)O)N1` [Pidotimod] ([pGlu]-[Thz]-OH): in test [1] (Well no.=7508, low concentration screen), the remaining activity at 1.25 µM stood at 101%. Also, the remaining activity at 3.75 µM in test [2] (Well no.=4933, high concentration screen) worked out at 105%; in test [2] (Well no.=7508, high concentration screen), 97.7%.

Take `CC[C@@H]1C(=O)OC[C@@H]1Cc1cncn1C` [Pilocarpine (Hydrochloride)]: in test [1] (Well no.=7627, low concentration screen), the remaining activity at 1.25 µM was 99.7%. In test [2] (Well no.=7627, high concentration screen), the remaining activity at 3.75 µM was 96.7%.

As for `CC[C@@H]1C(=O)OC[C@@H]1Cc1cncn1C` [Pilocarpine nitrate], in test [1] (Well no.=1150, low concentration screen), the remaining activity at 1.25 µM was 96.8%. The remaining activity at 3.75 µM in test [2] (Well no.=1150, high concentration screen) was 97%.

`CC[C@@H]1C(=O)OC[C@@H]1Cc1cncn1C` [Pilocarpine.HCl]: the remaining activity at 1.25 µM in test [1] (Well no.=1793, low concentration screen) came out at 98.6%; in test [1] (Well no.=3729, low concentration screen), 101%. In addition, the remaining activity at 3.75 µM in test [2] (Well no.=1793, high concentration screen) is 98.6%; in test [2] (Well no.=3729, high concentration screen), 105%.

In the case of `C[C@@H]1C/C=C/C=C/C=C/C=C/[C@H](O[C@@H]2O[C@H](C)[C@@H](O)[C@H](N)[C@@H]2O)C[C@@H]2O[C@](O)(C[C@@H](O)C[C@H]3O[C@@H]3/C=C/C(=O)O1)C[C@H](O)[C@H]2C(=O)O` [Pimaricin], in test [1] (Well no.=3703, low concentration screen), the remaining activity at 1.25 µM came out at 96.5%. Also, the remaining activity at 3.75 µM in test [2] (Well no.=3703, high concentration screen) amounted to 102%.

For `CC(C)COc1ccc(CNC(=O)N(Cc2ccc(F)cc2)C2CCN(C)CC2)cc1` [Pimavanserin tartrate], the remaining activity at 1.25 µM in test [1] (Well no.=6989, low concentration screen) turned out to be 103%. Besides, the remaining activity at 3.75 µM in test [2] (Well no.=6989, high concentration screen) was 102%.

For `CC(C)COc1ccc(CNC(=O)N(Cc2ccc(F)cc2)C2CCN(C)CC2)cc1` [Pimavanserin], in test [1] (Well no.=6521, low concentration screen), the remaining activity at 1.25 µM came out at 95%. For the same molecule, in test [2] (Well no.=6521, high concentration screen), the remaining activity at 3.75 µM was 95.9%.

Regarding `CC[C@@H]1/C=C(\C)C[C@H](C)C[C@H](OC)[C@H]2O[C@@](O)(C(=O)C(=O)N3CCCC[C@H]3C(=O)O[C@H](/C(C)=C/[C@@H]3CC[C@H](Cl)[C@H](OC)C3)[C@H](C)[C@@H](O)CC1=O)[C@H](C)C[C@@H]2OC` [Pimecrolimus], in test [1] (Well no.=8178, low concentration screen), the remaining activity at 1.25 µM worked out at 93.5%. Further, the remaining activity at 3.75 µM in test [2] (Well no.=8178, high concentration screen) was found to be 91.3%.

For `Cc1ccc(NC(=O)CCCCCC(=O)Nc2ccccc2N)cc1` [Pimelic Diphenylamide 106 (analog)], the remaining activity at 1.25 µM in test [1] (Well no.=8230, low concentration screen) is 104%. Further, the remaining activity at 3.75 µM in test [2] (Well no.=8230, high concentration screen) amounted to 102%.

Consider `Cc1ccc(NC(=O)CCCCCC(=O)Nc2ccccc2N)cc1` [Pimelic Diphenylamide 106], for which, in test [1] (Well no.=5991, low concentration screen), the remaining activity at 1.25 µM came to 101%. The remaining activity at 3.75 µM in test [2] (Well no.=5991, high concentration screen) turned out to be 99.4%.

With `O=C(O)CCCCCC(=O)O` [Pimelic acid], in test [1] (Well no.=7115, low concentration screen), the remaining activity at 1.25 µM is 96.9%. Besides, in test [2] (Well no.=7115, high concentration screen), the remaining activity at 3.75 µM came out at 99.2%.

In the case of `COc1ccc(-c2nc3cc(C4=NNC(=O)CC4C)ccc3[nH]2)cc1` (stereo not drawn) [Pimobendan (Vetmedin)], the remaining activity at 1.25 µM in test [1] (Well no.=4957, low concentration screen) came out at 100%. Further, the remaining activity at 3.75 µM in test [2] (Well no.=4957, high concentration screen) came out at 103%.

For `O=c1[nH]c2ccccc2n1C1CCN(CCCC(c2ccc(F)cc2)c2ccc(F)cc2)CC1` [Pimozide], the remaining activity at 1.25 µM came out at 93.3% in test [1] (Well no.=1094, low concentration screen) and 99.2% in test [1] (Well no.=1595, low concentration screen). The remaining activity at 3.75 µM in test [2] (Well no.=1094, high concentration screen) is 95%; in test [2] (Well no.=1595, high concentration screen) it was 95.7%.

For `CC(N/C(=N\C#N)Nc1ccncc1)C(C)(C)C` (stereo not drawn) [Pinacidil], the remaining activity at 1.25 µM in test [1] (Well no.=1503, low concentration screen) amounted to 98.1%; in test [1] (Well no.=1603, low concentration screen), 103%. The remaining activity at 3.75 µM in test [2] (Well no.=1503, high concentration screen) is 97.2%; in test [2] (Well no.=1603, high concentration screen), 98.9%.
